Experimental data from paper PMC7662397, “p-Cymene Complexes of Ruthenium(II) as Antitumor Agents” (Molecules, 2020).
Read-outs that look alike come from different tables or passages of the source.

Key:
HeLa cells [1] = experiment: MTT cytotoxicity assay, HeLa cells, 48 h; type: cell-based, human; details: read-out: IC50 (μM) HeLa
Source text: (§1) Human cervical cancer cells (HeLa), human breast cancer cells (MCF-7) and green monkey kidney epithelial cells (BGM) were acquired from the American Type Culture Collection (ATCC, USA). The reason to choose human cervical cancer cells (HeLa) and human breast cancer cells (MCF-7) was to use a cell culture model that closely represented the human in vivo situation. The green monkey kidney epithelial cells (BGM) were chosen to compare cancer cells with healthy cells. Cell lines were maintained in Dulbecco’s Modified Eagle Medium (DMEM) with a low glucose content (1 g/L) supplemented with 10% (v/v) fetal bovine serum (FBS), 1 mM glutamax, 1% antibiotics (penicillin–streptomycin) and 1 mM pyruvate. In all cases, the cells were maintained at 37 °C in 5% CO2 atmosphere of 95% humidity. Cells were sub-cultured and the medium was changed once a week. In all cases, 0.25% trypsin, 0.25 mM ethylenediaminetetraacetic acid (EDTA) was used.
(§2) A total of 5 × 10^3 cells/well (200 µL of the culture medium described above) were seeded into a 96-well plate and incubated at 37 °C in a 5% CO2 and 95% humidity atmosphere for 24 h. […] Finally, a 200 µL aliquot of each of these last sixteen solutions was added to the wells. Cells were incubated at 37 °C for 48 h. The medium was then removed from the wells and 200 μL of MTT (3-(4,5-dimethylthiazol-2-yl)-2,5-diphenyltetrazolium bromide, 1 mg/mL final concentration) was added. After 4 h incubation in identical conditions, MTT was removed and 100 µL of dimethyl sulfoxide (DMSO) added. The absorbance at 560 nm was measured and recorded in a Fluostar Omega spectrophotometer.
(§3) Absorbances at each compound concentration were translated into inhibition percentages, I%, according to Equation (1):(1) I% = [1− AT/AC]×100 where AT and AC are the absorbance of treated and control cells, respectively.
(§4) The fitting was performed using GraphPad Prism v.8 software. All compounds were tested in three independent sets with triplicate points. The in vitro studies were performed in SACE (Support Service for Experimental Sciences, University of Murcia, Murcia, Spain) with biosecurity Level 2.

BGM cells [2] = experiment: MTT cytotoxicity assay, BGM cells, 48 h; type: cell-based, green monkey; details: read-out: IC50 (μM) BGM
Source text: as §1, §2, §3, §4

MCF-7 cells [3] = experiment: MTT cytotoxicity assay, MCF-7 cells, 48 h; type: cell-based, human; details: read-out: IC50 (μM) MCF-7
Source text: as §1, §2, §3, §4

BGM cells [4] = details: cisplatin value from the literature; cited from earlier work
MCF-7 cells [5] = details: cisplatin value from the literature; cited from earlier work
HeLa cells [6] = tested on: HeLa cells; parameters: method as in PMID 29880783; details: cisplatin value from the literature; cited from earlier work
[7] = human cervical cancer cells, 48 h exposure, MTT
[8] = healthy green monkey kidney epithelial cells, 48 h exposure, MTT
[9] = human breast cancer cells, 48 h exposure, MTT
[10] = Chlorocebus sabaeus, BGM, healthy green monkey kidney epithelial cells, 48 h exposure, MTT
[11] = MCF7, human breast cancer cells, 48 h exposure, MTT

SMILES	IC50 (HeLa cells [1]; [7])	IC50 (BGM cells [2]; [8])	IC50 (MCF-7 cells [3]; [9])	IC50 (BGM cells [2]; [10])	IC50 (MCF-7 cells [3]; [11])	other results
N#Cc1ccncc1 [4-cyanopyridine]						IC50 (HeLa cells [1]; Homo sapiens, 48 h): > 250 µM; IC50 (BGM cells [2]; Chlorocebus sabaeus, BGM, 48 h): > 250 µM; IC50 (MCF-7 cells [3]; Homo sapiens, MCF7, 48 h): > 250 µM
Cc1ccc(C(C)C)cc1.Nc1ccc(O)cc1.[Cl][Ru][Cl] [Complex III]	171 ± 2.1 µM	59.6 ± 1.9 µM	75.8 ± 2.3 µM			
Cc1ccc(C(C)C)cc1.Nc1ccccc1O.[Cl][Ru][Cl] [Complex II]	82.9 ± 0.67 µM	> 250 µM	28.7 ± 1.8 µM			
Cc1ccc(C(C)C)cc1.[Cl][Ru][Cl].c1ccnnc1 [Complex IV]	> 250 µM	> 250 µM	> 250 µM			
Cc1ccc(C(C)C)cc1.N#Cc1ccncc1.[Cl][Ru][Cl] [Complex I]	> 250 µM	> 250 µM	> 250 µM			
Cc1ccc(C(C)C)cc1.F[P-](F)(F)(F)(F)F.Nc1ccccc1O.Nc1ccccc1O.[Cl][Ru+] [Complex VI]	57.6 ± 4 µM	95 ± 1.7 µM	24.9 ± 4.3 µM			
Nc1ccccc1O [L = 2-aminophenol, 2-aminophenol]	> 250 µM			> 250 µM	131.3 ± 0.15 µM	
Nc1ccc(O)cc1 [L = 4-aminophenol, 4-aminophenol]	> 250 µM			> 250 µM	> 250 µM	
c1ccnnc1 [Pyridazine]	> 250 µM			> 250 µM	> 250 µM	
N.N.[Cl][Pt][Cl] [cisplatin]						IC50 (BGM cells [4]): 5.45 ± 0.2 µM; IC50 (MCF-7 cells [5]): 7.15 ± 0.1 µM; IC50 (HeLa cells [6]): 67.6 ± 2 µM
